Experimental data as given in paper PMC4357015, “Structure, Function and Inhibition of the Phosphoethanolamine Methyltransferases of the Human Malaria Parasites Plasmodium vivax and Plasmodium knowlesi” (Scientific Reports, 2015).

Key:
[1] = system: pem1Δpem2Δ-pYES2.1-PkPMT; assay: yeast growth inhibition, pem1Δpem2Δ strain expressing PkPMT; format: cell-based; details: 100 μM AQ
Description: Figure 5 PMT-dependent inhibition of growth and PC biosynthesis by amodiaquine and NSC158011. (A–C): Growth curves of pem1Δpem2Δ-pYES2.1-PkPMT (A), pem1Δpem2Δ-pYES2.1-PvPMT (B), or Wild Type-pYES2.1- (C) strains grown in minimal medium containing 4% galactose and 1 mM ethanolamine in the presence or absence of 100 μM choline and 100 μM amodiaquine (AQ) as indicated. Growth curves of pem1Δpem2Δ-pYES2.1-PkPMT (D), pem1Δpem2Δ-pYES2.1-PvPMT (E), or Wild Type-pYES2.1- (F) strains maintained in minimal medium containing 4% galactose and 1 mM ethanolamine in the presence or absence of 100 μM choline and 10 μM NSC158011.
pem1Δpem2Δ-pYES2.1, pem1Δpem2Δ-pYES2.1-PkPMT, pem1Δpem2Δ-pYES2.1-PvPMT, and pem1Δpem2Δ-pYES2.1-PfPMT yeast strains were pre-grown overnight in uracil dropout synthetic galactose (4%) (SG-URA) medium supplemented with 2 mM ethanolamine (Etn). Cells were diluted to an A600 = 0.001 in fresh SG-URA medium supplemented with 2 mM Etn in the presence or absence of 100 μM Choline (Cho). Cells were grown at 30°C and the growth was monitored by measuring the A600. […]

[2] = system: PC biosynthesis in pem1Δpem2Δ-pYES2.1-PkPMT; assay: phospholipid analysis of yeast pem1Δpem2Δ strain expressing PkPMT; format: cell-based; details: 200 μM AQ
Description: Figure 6 PMT-dependent inhibition of PC biosynthesis by AQ and NSC158011. To assess the effect of AQ on phospholipid metabolism, […] and wild-type strains were grown in minimal medium containing 4% galactose and 2 mM ethanolamine in the absence or presence of 200 μM AQ, lipids were extracted and separated by TLC (A). Each lipid class was scrapped off the TLC plate and quantified by measuring phosphorus (B). The effect of NSC158011 on phospholipid biosynthesis was determined by [33P] orthophosphoric acid labeling as described in Material and Methods. Lipids were separated by TLC (C) and quantified by liquid scintillation spectrometry (D). For all assays, data were used to calculate the PC/PI + PA ratio. The data are represented as the mean ± S.D. of at least two independent experiments.
BY4741-pYes2.1 (wild-type) strains and the pem1Δpem2Δ strains harboring pYES2.1 vector, pYES2.1-PkPMT, pYES2.1-PvPMT or pYES2.1-PfPMT were pre-grown to mid-log phase at 30°C in SG-URA medium supplemented with Etn (2 mM) and Cho (2 mM). […] Each lipid class was excised from the plate and quantified by measuring phosphorus. […] After the growth, lipids were extracted and analyzed as described above. […] The resolved radioactive lipids were visualized by Phosphorimager (GE Typhoon) and quantified by liquid scintillation spectrometry as described.

What does the source list for CCN(CC)Cc1cc(Nc2ccnc3cc(Cl)ccc23)ccc1O [AQ, amodiaquine]?
growth of pem1Δpem2Δ+PkPMT strain in media supplemented with choline ([1]; 100 μM choline): no effect; growth of pem1Δpem2Δ+PkPMT strain ([1]; ethanolamine medium without choline): significantly inhibited; effect on the synthesis of PE [2]: little to no effect
